Data as given in article PMC6584114, “Metabolism of IMM-H004 and Its Pharmacokinetic-Pharmacodynamic Analysis in Cerebral Ischemia/Reperfusion Injured Rats” (Frontiers in Pharmacology, 2019).

Assays:
[1] = parameters: method as in Zhang et al., 2017; details: rat plasma and brain, 6 mg/kg; ref Zhang et al., 2017; cited from earlier work
[2] = tested on: human liver microsomes (HLMs), UGT; experiment: Kinetics of IMM-H004G formation (glucuronidation) in UDPGA-supplemented human liver microsomes; type: in vitro ADME; details: substrate IMM-H004
Protocol: (§1) To explore glucuronidation difference of IMM-H004 between humans and rats, the kinetics of IMM-H004G formation in UDPGA-supplemented HLMs and RLMs were determined. The incubation mixtures consisted of HLMs or RLMs (0.025 mg protein/ml), alamethicin (50 μg/mg protein), IMM-H004 (0.5–2,500 μM), and UDPGA (5 mM) in a final volume of 0.2 ml Tris-HCl buffer (50 mM, pH 7.4) containing 5 mM MgCl2. HLM or RLM was preincubated with alamethicin on ice for 15 min. The reaction was incubated at 37°C for 10 min and quenched by adding 200 μL of ice-cold acetonitrile containing IS (100 ng/ml). After vortex-mixing and centrifugation, IMM-H004G in the supernatant was analyzed by LC-MS/MS.
(§2) The LC-MS/MS system consisted of Shimadzu 30A UPLC and API 4000 triple quadruple mass spectrometer (AB SCIEX, USA). Data acquisition and analysis were accomplished using Analyst 1.5.2 software. The analytes and IS were chromatographed by injection of 1 μL sample. The mobile phases consisted of solvent A (0.5% formic acid in water) and solvent B (0.5% formic acid in methanol) at a flow rate of 0.3 ml/min on an Eclipse Plus C18 column (2.1 mm × 50 mm, 3.5 μm, Agilent, USA), and the operating temperature was 40°C. […] The specific transitions monitored were 305→248 for IMM-H004, 291→234 for M1, 291→248 for M2, 481→305 for IMM-H004G, 385→305 for M4, and 260→183 for IS.

[3] = parameters: method as in Jiang et al., 2018; details: rat brain; ref Jiang et al., 2018; cited from earlier work
[4] = tested on: rat liver microsomes (RLMs), UGT; experiment: Kinetics of IMM-H004G formation (glucuronidation) in UDPGA-supplemented rat liver microsomes; type: in vitro ADME; details: substrate IMM-H004
Protocol: as §1, §2

PC12 cells = experiment: Neuroprotection in oxygen-glucose deprivation injured PC12 cells (MTT cell viability); type: cell-based; details: 1 and 10 μM, 24 h, MTT, vs model group
Protocol: The neuroprotective activity of IMM-H004 and IMM-H004G was evaluated on PC12 cells damaged by oxygen-glucose deprivation (OGD). PC12 cells were purchased from the American Type Culture Collection. Cultures were maintained at 37°C in 5% CO2 in a humidified incubator. For cell viability assay, PC12 cells were incubated in 96-well plates at a density of 5 × 10^4/ml for 24 h. In the sham group, PC12 cells were cultured in Dulbecco’s modified eagle medium supplemented with 5% fetal bovine serum and 5% equine serum (Gibco, USA). In the OGD group, PC12 cells were cultured in glucose-free Earle’s balanced salt solution supplemented with 15 mM Na2S2O4 for 2 h and then incubated with compounds of nerve growth factor (NGF, 10 μM), edaravone (10 μM, 50 μM), IMM-H004 (1 μM, 10 μM), and IMM-H004G (1 μM, 10 μM), respectively. After 24 h of incubation, MTT (5 mg/ml) was added into the cell cultures and incubated for an additional 4 h. Then the supernatant was removed and 100 μL DMSO was added. Absorbance was measured using an Ultramark microplate reader at a wavelength of 562 nm. The cell viability was expressed as a percentage of the absorbance density value of control cultures.

[5] = Plasma pharmacokinetics in MCAO/R rats after iv IMM-H004 citrate; type: in vivo; details: rat, iv IMM-H004 citrate 10 mg/kg
Protocol: The plasma pharmacokinetics (PK) and pharmacodynamics (PD) of IMM-H004 and IMM-H004G were investigated in a cerebral ischemia-reperfusion rat model produced by middle cerebral artery occlusion/reperfusion (MCAO/R) after iv administration of IMM-H004. In brief, rats underwent a 1-h MCAO and then received IMM-H004 citrate (10 mg/kg, dissolved in saline to yield a concentration of 2 mg/ml) immediately after reperfusion, an effective dosing time as reported ([Zuo et al., 2015]; [Yang et al., 2017]). For sham surgery, all the arteries were exposed for the surgical period, but the filament was not inserted into the MCA. Blood samples were collected through external jugular vein cannula into heparinized tubes at 0.033, 0.167, 0.5, 1, 2, 4, 6, 8, 12, 24, 36, and 48 h postdose for IMM-H004 and IMM-H004G detection (50 μL of blood at each time point) and at 0.5, 1, 2, 4, 7, and 10 h postdose for malondialdehyde (MDA) detection (80 μL of blood at each time point). Plasma was immediately separated by centrifugation at 900×g for 5 min. Plasma concentrations of IMM-H004 and IMM-H004G in ischemia-reperfusion rats were determined by LC-MS/MS analysis. The PK parameters were calculated by noncompartmental analysis using WinNonlin Version 6.1 (Pharsight, Mountain View, CA). Plasma MDA concentrations in ischemia-reperfusion and sham rats within 24 h were estimated by enzyme-linked immunosorbent assay.
The LC-MS/MS system consisted of Shimadzu 30A UPLC and API 4000 triple quadruple mass spectrometer (AB SCIEX, USA). Data acquisition and analysis were accomplished using Analyst 1.5.2 software. The analytes and IS were chromatographed by injection of 1 μL sample. The mobile phases consisted of solvent A (0.5% formic acid in water) and solvent B (0.5% formic acid in methanol) at a flow rate of 0.3 ml/min on an Eclipse Plus C18 column (2.1 mm × 50 mm, 3.5 μm, Agilent, USA), and the operating temperature was 40°C. The elution condition was 10% solvent B for 0.7 min, ascending to 98% B in 2.3 min, holding for 3.0 min and reequilibrating to 10% B within 0.1 min and maintained for 2.4 min (Jiang JW, 2018). The specific transitions monitored were 305→248 for IMM-H004, 291→234 for M1, 291→248 for M2, 481→305 for IMM-H004G, 385→305 for M4, and 260→183 for IS.

COc1cc(O)cc2oc(=O)c(N3CCN(C)CC3)c(C)c12 [IMM-H004, 7-hydroxy-5-methoxy-4-methyl-3-(4-methylpiperazin-1-yl)-coumarin]
elimination half-life (t 1/2β) [1]: 11.4 min | K m of IMM-H004G formation (glucuronidation) [2]: 119.3 µM | V max of IMM-H004G formation (glucuronidation) [2]: 3.25 nmol/min/mg protein | T max (crossing the blood–brain barrier) [3]: 12.6 min | K m of IMM-H004G formation (glucuronidation) [4]: 9.5 µM | V max of IMM-H004G formation (glucuronidation) [4]: 5.04 nmol/min/mg protein | cell viability of OGD-injured PC12 cells (PC12 cells): significant (p < 0.05) preservation of viability | AUC(0-inf) [5]: 1640 ng·h/mL | AUC(0-t) [5]: 1640 ng·h/mL | Cmax [5]: 7460 ng/mL | MRT last ([5]; read-out: MRT(0-t)): 10.8 ± 0.6 min | MRT inf ([5]; read-out: MRT(0-∞)): 11.4 ± 1.2 min | half-life ([5]; read-out: t 1/2β (converted)): 25.2 ± 1.8 min | Tmax ([5]; iv, 10 mg/kg, read-out: T max): 1.8 min
